Measured values: US20030148337A1, “ARL-2 for birth control” (Schering AG, priority 2001, published 2003)

Legend:
neuronal cell cultures = conditions: Kruman et al., 1997; Malecki et al., 2000; cited from earlier work
human ARL-2 protein = molecular target: T1, human ARL-2 protein (Homo sapiens, UniProt C9JRZ8); test: Standard ARL-2 enzyme assay (NADPH A340 decrease); format: biochemical; conditions: sodium-phosphate buffer pH 6.3, 0.2 mmol NADPH, 28° C.
T1 construct: For the expression of the ARL-2 protein, the coding area was amplified by means of the polymerase chain reaction; His-tag; made in house; host or cells: E. coli (pQE30) or insect cells (baculovirus pBlueBac4.5/V5-His-TOPO)
T1 sequence (C9JRZ8 whole entry): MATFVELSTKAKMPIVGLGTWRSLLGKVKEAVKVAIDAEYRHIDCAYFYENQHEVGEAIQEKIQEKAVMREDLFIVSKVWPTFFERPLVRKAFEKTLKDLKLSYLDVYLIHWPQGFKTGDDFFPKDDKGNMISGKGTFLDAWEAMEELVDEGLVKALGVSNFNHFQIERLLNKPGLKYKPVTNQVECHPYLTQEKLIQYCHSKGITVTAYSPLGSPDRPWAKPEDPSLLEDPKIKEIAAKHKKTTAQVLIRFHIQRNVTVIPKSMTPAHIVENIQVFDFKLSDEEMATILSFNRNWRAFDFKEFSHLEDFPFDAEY
Excerpt: For the expression of the ARL-2 protein, the coding area was amplified by means of the polymerase chain reaction (for reaction conditions, see Example 2) (primer for the N-terminal area: 5′ ATGGCCACGTTTGTGGAGCTC 3′; primer for the C-terminal area: 5′ ATATTCTGCATCGAAGGGAAA 3′), and inserted in the baculovirus expression vector pBlueBac4.5/V5-His-TOPO (Invitrogen) or the eukaryotic expression vector pcDNA3.1/V5/His-TOPO (Invitrogen). For the expression of the ARL-2 protein in E. coli, the coding area was amplified by means of a polymerase chain reaction (for reaction conditions, see Example 2) (primer for the N-terminal area: 5′ CGGGATCCGCCACGTTTGTGGAGCTC 3′; primer for the C-terminal area: 5′ CCCAAGCTTTCAATATTCTGCATCGAAGGGAAA 3′) and inserted in the procaryotic expression vector pQE30 (Quiagen). To simplify detection and purification, a fusion with an His-tag was carried out. […]
A standard ARL-2 enzyme assay was performed as follows: The standard enzyme reaction batch contained 135 mmol of sodium-phosphate buffer (pH 6.3), 0.2 mmol of NADPH and measured substrate and enzyme concentrations. The enzyme reaction was carried out at 28° C., and the substrate conversion was determined by spectrometry via the reduction of A340 of the NADPH. […] Controls without substrate and without enzyme were measured with respect to the standard. […]

[1] = test system: endothelial cell cultures; conditions: Herbst et al., 1997; cited from earlier work
[2] = test system: adrenocorticotrophic carcinoma cell line Y1; test: Test system for apoptosis-inducing substances, annexin-V staining in Y1 cells; format: cell-based, mouse; conditions: concentration of 10 μM; 12 hours incubation
Description: In this test system, substances can be examined with respect to their apoptosis-inducing action. The adrenocorticotrophic carcinoma cell line Y1 was used as a cell system. Cell cultures of this mouse cell line were treated for 12 hours with different substances before the rate of apoptosis in the cells was determined. […] Y1 cells/ml were resuspended in DME/F12 (+10% FCS) and treated with the substances to be tested. After 12 hours of incubation time, the apoptosis rate was determined in the Y1 cells using annexin-V-alexa 468 staining (Roche) in combination with DNA staining (Hoechst-33258, Molecular Probes) according to manufacturer's information.

## CCCCCC(O)/C=C/C=O (centres unmarked) [4-hydroxynonenal]
Neuronal cell cultures
  induction of apoptosis in neuronal cell cultures: induces apoptosis
Human ARL-2 protein
  substrate of the aldo-keto-reductase ARL-2: preferred substrates
[1]
  induction of apoptosis in endothelial cell cultures: induces apoptosis
[2]
  induction of apoptosis in the Y1 cell line: can induce apoptosis

## CC(C)CCC=O [isocaproaldehyde]
Human ARL-2 protein
  substrate of the aldo-keto-reductase ARL-2: preferred substrates
